Reference: publication PMC11876601 (Molecular Systems Biology, 2025)
Read-outs that look alike come from different tables or passages of the source.

How the values were obtained:
Assay in all cases: cells
[1] = test system: FAMPAC; design: ATPlite luminescence viability of PDAC cell lines, 11-dose single-agent curves, 4-parameter fit; conditions: 72 h, read-out: EC50 [nM]
Method in brief: (§1)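 Drug-combination screening used cells plated at 1000 to 5000 per well one day before treatment. Final DMSO was 0.2%. Each plate held untreated negative-control wells and 5 µM staurosporine positive-control wells.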

[2] = test system: Colo-357; design: ATPlite luminescence viability of PDAC cell lines, 11-dose single-agent curves, 4-parameter fit; conditions: Homo sapiens, COLO357, 72 h, read-out: EC50 [nM]
Method in brief: as §1

[3] = test system: HPDE; design: ATPlite luminescence viability of PDAC cell lines, 11-dose single-agent curves, 4-parameter fit; conditions: HPDE, 72 h, read-out: EC50 [nM]
Method in brief: as §1

[4] = test system: BxPC-3; design: ATPlite luminescence viability of PDAC cell lines, 11-dose single-agent curves, 4-parameter fit; conditions: Homo sapiens, BXPC-3, 72 h, read-out: EC50 [nM]
Method in brief: as §1

[5] = test system: Dan-G; design: ATPlite luminescence viability of PDAC cell lines, 11-dose single-agent curves, 4-parameter fit; conditions: 72 h, read-out: EC50 [nM]
Method in brief: as §1

[6] = test system: HuP-T4; design: Viability of PDAC cell lines, ATPlite luminescence, 11-dose single-agent curve fit; conditions: Homo sapiens, HuP-T4, 72 h, read-out: EC50 [nM]
Method in brief: (§2)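 screening used cells plated at 1000 to 5000 per well one day before treatment. Final DMSO was 0.2%. Each plate held untreated negative-control wells and 5 µM staurosporine positive-control wells.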

[7] = test system: PaTu-8988-T; design: Viability of PDAC cell lines, ATPlite luminescence, 11-dose single-agent curve fit; conditions: Homo sapiens, PaTu 8988t, 72 h, read-out: EC50 [nM]
Method in brief: as §2

[8] = test system: PSN-1; design: Viability of PDAC cell lines, ATPlite luminescence, 11-dose single-agent curve fit; conditions: Homo sapiens, PSN1, 72 h, read-out: EC50 [nM]
Method in brief: as §2

[9] = test system: AsPC-1; design: Viability of PDAC cell lines, ATPlite luminescence, 11-dose single-agent curve fit; conditions: Homo sapiens, ASPC1, 72 h, read-out: EC50 [nM]
Method in brief: as §2

[10] = test system: Suit2-07; design: Viability of PDAC cell lines, ATPlite luminescence, 11-dose single-agent curve fit; conditions: 72 h, read-out: EC50 [nM]
Method in brief: as §2

[11] = test system: Capan-1; design: Viability of PDAC cell lines, ATPlite luminescence, 11-dose single-agent curve fit; conditions: Homo sapiens, CAPAN-1, 72 h, read-out: EC50 [nM]
Method in brief: as §2

[12] = test system: PANC-1; design: Viability of PDAC cell lines, ATPlite luminescence, 11-dose single-agent curve fit; conditions: Homo sapiens, PANC-1, 72 h, read-out: EC50 [nM]
Method in brief: as §2

[13] = test system: MiaPaCa-2; design: Viability of PDAC cell lines, ATPlite luminescence, 11-dose single-agent curve fit; conditions: Homo sapiens, MIA PaCa-2, 72 h, read-out: EC50 [nM]
Method in brief: as §2

[14] = test system: PaTu-8988-T; design: ATPlite luminescence viability of PDAC cell lines, 11-dose single-agent curves, 4-parameter fit; conditions: Homo sapiens, PaTu 8988t, 72 h, read-out: EC50 [nM]
Method in brief: as §1

[15] = test system: PSN-1; design: ATPlite luminescence viability of PDAC cell lines, 11-dose single-agent curves, 4-parameter fit; conditions: Homo sapiens, PSN1, 72 h, read-out: EC50 [nM]
Method in brief: as §1

[16] = test system: AsPC-1; design: ATPlite luminescence viability of PDAC cell lines, 11-dose single-agent curves, 4-parameter fit; conditions: Homo sapiens, ASPC1, 72 h, read-out: EC50 [nM]
Method in brief: as §1

[17] = test system: Suit2-07; design: ATPlite luminescence viability of PDAC cell lines, 11-dose single-agent curves, 4-parameter fit; conditions: 72 h, read-out: EC50 [nM]
Method in brief: as §1

[18] = test system: MiaPaCa-2; design: ATPlite luminescence viability of PDAC cell lines, 11-dose single-agent curves, 4-parameter fit; conditions: Homo sapiens, MIA PaCa-2, 72 h, read-out: EC50 [nM]
Method in brief: as §1

[19] = test system: Colo-357; design: Viability of PDAC cell lines, ATPlite luminescence, 11-dose single-agent curve fit; conditions: Homo sapiens, COLO357, 72 h, read-out: EC50 [nM]
Method in brief: as §2

[20] = test system: FAMPAC; design: Viability of PDAC cell lines, ATPlite luminescence, 11-dose single-agent curve fit; conditions: 72 h, read-out: EC50 [nM]
Method in brief: as §2

[21] = test system: BxPC-3; design: Viability of PDAC cell lines, ATPlite luminescence, 11-dose single-agent curve fit; conditions: Homo sapiens, BXPC-3, 72 h, read-out: EC50 [nM]
Method in brief: as §2

[22] = test system: Dan-G; design: Viability of PDAC cell lines, ATPlite luminescence, 11-dose single-agent curve fit; conditions: 72 h, read-out: EC50 [nM]
Method in brief: as §2

[23] = test system: Capan-1; design: ATPlite luminescence viability of PDAC cell lines, 11-dose single-agent curves, 4-parameter fit; conditions: Homo sapiens, CAPAN-1, 72 h, read-out: EC50 [nM]
Method in brief: as §1

[24] = test system: HPDE; design: Viability of PDAC cell lines, ATPlite luminescence, 11-dose single-agent curve fit; conditions: HPDE, 72 h, read-out: EC50 [nM]
Method in brief: as §2

Row | EC50 [2] | EC50 [4] | EC50 [9] | EC50 [12] | EC50 [13] | EC50 [16] | EC50 [18] | SMILES | EC50 [1] | EC50 [3] | EC50 [5] | EC50 [6] | EC50 [7] | EC50 [8] | EC50 [10] | EC50 [11] | EC50 [14] | EC50 [15] | EC50 [17] | other results
1 | 464 nM |  | 515 nM | 8860 nM | 2570 nM |  |  | COc1cc2ncnc(Nc3cccc(Cl)c3F)c2cc1OC(=O)N1CCN(C)C[C@H]1C [AZD3759] |  | 483 nM | 445 nM | 2590 nM | 1690 nM | 2560 nM | 1330 nM | 1200 nM |  |  |  | EC50 [20]: 2880 nM; EC50 [21]: 847 nM
2 | 6410 nM | 5990 nM |  | > 10000 nM |  | > 10000 nM | 1010 nM | CN(C)CCCOc1ccc(-c2ccc3ncc4c(c3c2)n(C2CCOCC2)c(=O)n4C)cn1 [AZD-0156] | 1890 nM | 10400 nM |  |  |  |  |  | > 10000 nM | 606 nM | 3260 nM | 1960 nM | EC50 [22]: 4160 nM

Continued, compound first:

Row | SMILES | EC50 [2] | EC50 [4] | EC50 [9] | EC50 [12] | EC50 [13] | EC50 [16] | EC50 [18] | EC50 [1] | EC50 [3] | EC50 [5] | EC50 [6] | EC50 [7] | EC50 [8] | EC50 [10] | EC50 [11] | EC50 [14] | EC50 [15] | EC50 [17] | other results
3 | C[C@@H]1COC(Nc2ccc3ncnc(Nc4ccc(OCc5nccs5)c(Cl)c4)c3c2)=N1 [Varlitinib] | 676 nM | 1760 nM | 390 nM | > 10000 nM | 4440 nM |  |  | > 10000 nM | 1930 nM | 630 nM | 40.5 nM | 861 nM | 2940 nM | 2070 nM | 724 nM |  |  |  | 
4 | O=C1CCc2c(Oc3ccc4c(c3)[C@@H]3[C@H](O4)[C@H]3c3nc4cc(C(F)(F)F)ccc4[nH]3)ccnc2N1 [Lifirafenib] |  | 3060 nM |  | > 10000 nM |  | 966 nM | 2650 nM | 2510 nM | 1980 nM | 2000 nM | 4500 nM |  |  |  | 9370 nM | 2540 nM | 696 nM | > 10000 nM | EC50 [19]: 3500 nM
5 | C#Cc1cccc(Nc2ncnc3cc4c(cc23)OCCOCCOCCO4)c1 [Icotinib] | 2260 nM |  | 416 nM | 716 nM | 1760 nM |  |  |  | 1000 nM | 1530 nM | 0.21 nM | 91.9 nM | 42 nM | 101 nM | 1900 nM |  |  |  | EC50 [20]: 6990 nM; EC50 [21]: 5260 nM
6 | C=CC(=O)Nc1cccc(Oc2nc(Nc3ccc(N4CCN(C)CC4)cc3)nc3ccsc23)c1 [Olmutinib] |  | 5220 nM |  | > 10000 nM |  | 6710 nM | 5290 nM | > 10000 nM | 3900 nM | > 10000 nM | 2230 nM |  |  |  | > 10000 nM | > 10000 nM | 7020 nM | 7100 nM | EC50 [19]: 8230 nM
7 | COc1cc(Nc2ncc3c(n2)-c2ccc(Cl)cc2C(c2c(F)cccc2OC)=NC3)ccc1C(=O)O [Alisertib] | 291 nM | 848 nM | 405 nM | 95.6 nM |  |  | 87 nM | 68.6 nM |  | 914 nM | 64.4 nM | 274 nM |  | 272 nM |  |  | 846 nM |  | EC50 [23]: 427 nM; EC50 [24]: 2700 nM
